In patent US4057686A, “Sulphonic acid salts of S-adenosilmethionine” (Bioresearch Limited, priority 1974, dated 1977):

Test system: Parkinsons disease and Parkinsonisms
Assay: Clinical tests: Parkinsons disease and Parkinsonisms, with Levodopa
Format: in vivo, human
Conditions: Levodopa alone

In the case of `N[C@@H](Cc1ccc(O)c(O)c1)C(=O)O` [Levodopa, reference compound], the “extent of the Parkinson tremor” value is reported as “cannot be modified”.
